The results in this text go back to patent publication US4650855A, “Glycopeptide antibiotic L 17046” (Gruppo Lepetit S.p.A., priority 1983, dated 1987).

The subject of data set [1] is Staplylococcus aureus Tour. As to the kind of experiment: In vitro antibacterial activity, two-fold dilution method in microtiter system (MIC). Type of data set: cell-based, Staphylococcus aureus. How it is done:
(§1) Isosensitest broth (Oxoid) and Todd-Hewitt broth (Difco) were used for Staphylococci and Streptococci, respectively. Broth cultures were diluted so that the final inoculum was about 10^4 colony forming units/ml (CFU/ml).

A short description of data set [2]: Solubility. Type of data set: physicochemical.
The subject of data set [3] is coagulase-negative staphylocci (S. epidermidis, S. saprophyticus). Put plainly: Effectiveness against coagulase-negative staphylococci. Type of data set: cell-based. An excerpt:
(§2) Its MICs […] against some clinical isolates of the above microbial strains are listed below in Table II: […]

Data set [4] relates to S. saprophyticus L 1141. Put plainly: MIC against clinical isolates of coagulase-negative staphylococci. The data set is classed as cell-based. The conditions noted are these: clinical isolate. How it is done: as §1, §2
The subject of data set [5] is S. epidermidis L 1378. The data set is described as above. The data set is classed as cell-based. To be noted: clinical isolate. How it is done: as §1, §2
Data set [6] concerns S. epidermidis L 785. The description is as above. The conditions noted are these: clinical isolate, methicillin-resistant strain. Type of data set: cell-based. How it is done: as §1, §2
Data set [7] deals with S. epidermidis L 1142. Described as above. Type of data set: cell-based. To be noted: clinical isolate, methicillin-resistant strain. On the procedure: as §1, §2
Data set [8] relates to S. epidermidis L 835. The description is as above. Type of data set: cell-based. The conditions noted are these: clinical isolate, methicillin-resistant strain. How it is done:
as §1, §2

The test system of data set [9] is mice. Put plainly: Approximate acute toxicity in mice. The data set is classed as in vivo. To be noted: acute toxicity (i.p.), administered by i.m. route as printed.
In data set [10] the test system is Staphylococcus epidermidis ATCC 12228. As to the kind of experiment: In vitro antibacterial activity, two-fold dilution method in microtiter system (MIC). To be noted: Isosensitest broth, inoculum about 10^4 CFU/ml, 18-24 h at 37° C. Type of data set: cell-based. On the procedure:
as §1

Data set [11] deals with Streptococcus pneumoniae UC 41. The data set is described as above. Type of data set: cell-based. To be noted: Todd-Hewitt broth, inoculum about 10^4 CFU/ml, 18-24 h at 37° C. On the procedure: as §1
Data set [12] has as its system Staphylococcus aureus ATCC 6538. The data set is described as above. Type of data set: cell-based. The conditions noted are these: Isosensitest broth, inoculum about 10^4 CFU/ml, 18-24 h at 37° C. How it is done:
as §1

For data set [13], the system named is Streptococcus pyogenes C 203. The description is as above. Type of data set: cell-based. The conditions noted are these: Todd-Hewitt broth, inoculum about 10^4 CFU/ml, 18-24 h at 37° C. How it is done: as §1
The test system of data set [14] is Streptococcus faecalis ATCC 7080. The description is as above. The data set is classed as cell-based. The conditions noted are these: Todd-Hewitt broth, inoculum about 10^4 CFU/ml, 18-24 h at 37° C. On the procedure:
as §1

For data set [15], the system named is Streptococcus dysgalactiae ATCC 9926. The data set is described as above. To be noted: Todd-Hewitt broth, inoculum about 10^4 CFU/ml, 18-24 h at 37° C. Type of data set: cell-based. How it is done: as §1
Data set [16] is described as follows: Potentiometric titration profile. To be noted: methylcellosolve:water 4:1, titration with 0.01 N NaOH after excess 0.01 N HCl. Type of data set: physicochemical.
For data set [17], the system named is gram-positive bacteria. Put plainly: In vitro antibacterial activity, spectrum. The data set is classed as cell-based. How it is done: as §1

In brackets after ≈: the same amount, converted by molar mass.

In general, MIC refers to the lowest concentration that inhibits growth of the organism. In the case of `CC(=O)N[C@@H]1[C@@H](O[C@H]2c3ccc(c(Cl)c3)Oc3cc4cc(c3O)Oc3ccc(cc3Cl)C[C@@H]3NC(=O)[C@@H](N)c5ccc(O)c(c5)Oc5cc(O)cc(c5)[C@@H](NC3=O)C(=O)N[C@@H]4C(=O)N[C@@H]3C(=O)N[C@H]2C(=O)N[C@@H](C(=O)O)c2cc(O)cc(O)c2-c2cc3ccc2O)O[C@@H](CO)[C@H](O)[C@H]1O` (stereo in doubt) [antibiotic L 17046], the MIC was 0.4 µg/mL in data set [1] (Isosensitest broth + 30% bovine serum); 0.2 µg/mL (≈ 0.143 µM) in data set [1] (Isosensitest broth, inoculum about 10^4 CFU/ml, 18-24 h at 37° C.); 0.1 µg/mL (≈ 0.0713 µM) in data set [4]; 0.05 µg/mL (≈ 0.0357 µM) in data set [5]; 0.05 µg/mL (≈ 0.0357 µM) in data set [6]; 0.1 µg/mL (≈ 0.0713 µM) in data set [7]. Also, the MIC in data set [8] is 0.1 µg/mL (≈ 0.0713 µM); in [10], 0.05 µg/mL (≈ 0.0357 µM); in data set [11] it was 1.6 µg/mL (≈ 1.14 µM); in [12], 0.2 µg/mL (≈ 0.143 µM); in [13], 1.6 µg/mL (≈ 1.14 µM); in data set [14], 1.6 µg/mL (≈ 1.14 µM). Moreover, in [15], the MIC is 0.8 µg/mL (≈ 0.571 µM). For the same compound, the solubility result in [2] (in highly concentrated mineral acids) is reported as “insoluble”; in data set [2] (in methanol), “sligltly soluble”; in [2] (in water at pH>8.0, dimethylformamide, dimethylsulfoxide, propyleneglycol and methylcellosolve), “freely soluble”. Moreover, the “effectiveness against coagulase-negative staphylococci” value in data set [3] was “particularly effective”. In addition, the “approximate LD50” value in data set [9] was “about 850 mg/kg”. Moreover, in data set [16] (five equivalents), the “pH1/2 value, third titration slope” value is reported as 11. Also, the “pH1/2 value, first titration slope” value in data set [16] (one equivalent) turned out to be 5.0. Further, in data set [16] (one equivalent), the “pH1/2 value, second titration slope” value came out at 7.0. The “in vitro antibacterial activity (spectrum)” value in [17] is given as “mainly active against gram-positive bacteria”.
